Reference: patent US12077503B2, “Substituted cyclic amides and their use as herbicides” (FMC CORPORATION, priority 2015, dated 2024)

Legend:
Format in all cases: in vivo
[1] = system: ivy-leaved morning glory (Ipomoea hederacea); experiment: Test G Pre-Emergence Protocol; conditions: Ipomoea, pre-emergence, 312 h, evaluated after 13 days
How it was run: (§1)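 Pots of seeds in standard soil were grown for one day in a glasshouse (24/16 °C day/night, 14 h light, 65% humidity), then sprayed with compound in acetone/water 50:50 with 0.5% Tween 20 at 15.625, 62.5 or 250 g/ha. Damage was scored after 13 days on a 0 (none) to 100 (total) scale.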

[2] = system: barnyardgrass (Echinochloa crus-galli); experiment: Test G Pre-Emergence Protocol; conditions: Echinochloa crus-galli, pre-emergence, 312 h, evaluated after 13 days
How it was run: as §1

[3] = system: velvetleaf (Abutilon theophrasti); experiment: Test G Pre-Emergence Protocol; conditions: Abutilon theophrasti, pre-emergence, 312 h, evaluated after 13 days
How it was run: as §1

[4] = system: corn (Zea mays); experiment: Test G Pre-Emergence Protocol; conditions: Zea mays, pre-emergence, 312 h, evaluated after 13 days
How it was run: as §1

[5] = system: giant foxtail (Setaria faberi); experiment: Test G Pre-Emergence Protocol; conditions: Setaria faberi, pre-emergence, 312 h, evaluated after 13 days
How it was run: as §1

[6] = system: redroot pigweed (Amaranthus retroflexus); experiment: Test G Pre-Emergence Protocol; conditions: Amaranthus retroflexus, pre-emergence, 312 h, evaluated after 13 days
How it was run: as §1

[7] = system: ivy-leaved morning glory (Ipomoea hederacea); experiment: Test G Post-Emergence Protocol; conditions: Ipomoea, post-emergence, 312 h
How it was run: (§2)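 Scores run 0 (no damage) to 100 (total damage) and were taken 13 days after spraying. Plants had been raised in pots for 8 days under glasshouse control (24/16 °C, 14 h photoperiod, 65% humidity) and then treated at 15.625, 62.5 or 250 g/ha.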

[8] = system: barnyardgrass (Echinochloa crus-galli); experiment: Test G Post-Emergence Protocol; conditions: Echinochloa crus-galli, post-emergence, 312 h
How it was run: as §2

[9] = system: velvetleaf (Abutilon theophrasti); experiment: Test G Post-Emergence Protocol; conditions: Abutilon theophrasti, post-emergence, 312 h
How it was run: as §2

[10] = system: corn (Zea mays); experiment: Test G Post-Emergence Protocol; conditions: Zea mays, post-emergence, 312 h
How it was run: as §2

[11] = system: giant foxtail (Setaria faberi); experiment: Test G Post-Emergence Protocol; conditions: Setaria faberi, post-emergence, 312 h
How it was run: as §2

[12] = system: redroot pigweed (Amaranthus retroflexus); experiment: Test G Post-Emergence Protocol; conditions: Amaranthus retroflexus, post-emergence, 312 h
How it was run: as §2

## CN1C[C@H](c2ccc(C(F)(F)F)cc2)[C@@H](C(=O)Nc2ccc(F)cc2S(C)(=O)=O)C1=O (racemic) [Compound 1483]
[1]; 15.625 g ai/ha, read-out: Morning-glory, Ivy-leaved damage rating (100=total damage to plant; 0=no damage to plant)
  pest or weed control at 15.625 g/ha: 0%
[1]; 62.5 g ai/ha, 100=total damage to plant, 0=no damage to plant, read-out: plant damage rating, Morningglory, Ivy-leaved
  pest or weed control at 62.5 g/ha: 0%
[1]; 250 g ai/ha, read-out: Morningglory, Ivy-leaved damage rating (100=total damage to plant; 0=no damage to plant)
  pest or weed control at 250 g/ha: 0%
[2]; 15.625 g ai/ha, read-out: Barnyard grass damage rating (100=total damage to plant; 0=no damage to plant)
  pest or weed control at 15.625 g/ha: 40%
[2]; 62.5 g ai/ha, 100=total damage to plant, 0=no damage to plant, read-out: plant damage rating, Barnyardgrass
  pest or weed control at 62.5 g/ha: 40%
[2]; 250 g ai/ha, read-out: Barnyardgrass damage rating (100=total damage to plant; 0=no damage to plant)
  pest or weed control at 250 g/ha: 70%
[3]; 15.625 g ai/ha, read-out: Velvetleaf damage rating (100=total damage to plant; 0=no damage to plant)
  pest or weed control at 15.625 g/ha: 0%
[3]; 62.5 g ai/ha, 100=total damage to plant, 0=no damage to plant, read-out: plant damage rating, Velvetleaf
  pest or weed control at 62.5 g/ha: 0%
[3]; 250 g ai/ha, read-out: Velvetleaf damage rating (100=total damage to plant; 0=no damage to plant)
  pest or weed control at 250 g/ha: 0%
[4]; 15.625 g ai/ha, read-out: Corn damage rating (100=total damage to plant; 0=no damage to plant)
  plant injury at 15.625 g/ha: 30%
[4]; 62.5 g ai/ha, 100=total damage to plant, 0=no damage to plant, read-out: plant damage rating, Corn
  plant injury at 62.5 g/ha: 20%
[4]; 250 g ai/ha, read-out: Corn damage rating (100=total damage to plant; 0=no damage to plant)
  plant injury at 250 g/ha: 40%
[5]; 15.625 g ai/ha, read-out: Foxtail, Giant damage rating (100=total damage to plant; 0=no damage to plant)
  pest or weed control at 15.625 g/ha: 30%
[5]; 62.5 g ai/ha, 100=total damage to plant, 0=no damage to plant, read-out: plant damage rating, Foxtail, Giant
  pest or weed control at 62.5 g/ha: 60%
[5]; 250 g ai/ha, read-out: Foxtail, Giant damage rating (100=total damage to plant; 0=no damage to plant)
  pest or weed control at 250 g/ha: 80%
[6]; 15.625 g ai/ha, read-out: Pigweed, Redroot damage rating (100=total damage to plant; 0=no damage to plant)
  pest or weed control at 15.625 g/ha: 20%
[6]; 62.5 g ai/ha, 100=total damage to plant, 0=no damage to plant, read-out: plant damage rating, Pigweed, Redroot
  pest or weed control at 62.5 g/ha: 40%
[6]; 250 g ai/ha, read-out: Pigweed, Redroot damage rating (100=total damage to plant; 0=no damage to plant)
  pest or weed control at 250 g/ha: 80%
[7]; 15.625 g ai/ha, evaluated after 13 days (100=total damage to plant; 0=no damage to plant), read-out: Morningglory, Ivy-leaved damage rating
  pest or weed control at 15.625 g/ha: 0%
[7]; 62.5 g ai/ha, evaluated after 13 days, read-out: Morningglory, Ivy-leaved damage rating (100=total damage to plant; 0=no damage to plant)
  pest or weed control at 62.5 g/ha: 0%
[7]; 250 g ai/ha, evaluated after 13 days, read-out: damage to plant, Morningglory, Ivy-leaved (100=total damage to plant; 0=no damage to plant)
  pest or weed control at 250 g/ha: 0%
[8]; 15.625 g ai/ha, evaluated after 13 days (100=total damage to plant; 0=no damage to plant), read-out: Barnyardgrass damage rating
  pest or weed control at 15.625 g/ha: 30%
[8]; 62.5 g ai/ha, evaluated after 13 days, read-out: Barnyardgrass damage rating (100=total damage to plant; 0=no damage to plant)
  pest or weed control at 62.5 g/ha: 40%
[8]; 250 g ai/ha, evaluated after 13 days, read-out: damage to plant, Barnyardgrass (100=total damage to plant; 0=no damage to plant)
  pest or weed control at 250 g/ha: 70%
[9]; 15.625 g ai/ha, evaluated after 13 days (100=total damage to plant; 0=no damage to plant), read-out: Velvetleaf damage rating
  pest or weed control at 15.625 g/ha: 10%
[9]; 62.5 g ai/ha, evaluated after 13 days, read-out: Velvetleaf damage rating (100=total damage to plant; 0=no damage to plant)
  pest or weed control at 62.5 g/ha: 10%
[9]; 250 g ai/ha, evaluated after 13 days, read-out: damage to plant, Velvetleaf (100=total damage to plant; 0=no damage to plant)
  pest or weed control at 250 g/ha: 30%
[10]; 15.625 g ai/ha, evaluated after 13 days (100=total damage to plant; 0=no damage to plant), read-out: Corn damage rating
  plant injury at 15.625 g/ha: 20%
[10]; 62.5 g ai/ha, evaluated after 13 days, read-out: Corn damage rating (100=total damage to plant; 0=no damage to plant)
  plant injury at 62.5 g/ha: 30%
[10]; 250 g ai/ha, evaluated after 13 days, read-out: damage to plant, Corn (100=total damage to plant; 0=no damage to plant)
  plant injury at 250 g/ha: 50%
[11]; 15.625 g ai/ha, evaluated after 13 days (100=total damage to plant; 0=no damage to plant), read-out: Foxtail, Giant damage rating
  pest or weed control at 15.625 g/ha: 30%
[11]; 62.5 g ai/ha, evaluated after 13 days, read-out: Foxtail, Giant damage rating (100=total damage to plant; 0=no damage to plant)
  pest or weed control at 62.5 g/ha: 60%
[11]; 250 g ai/ha, evaluated after 13 days, read-out: damage to plant, Foxtail, Giant (100=total damage to plant; 0=no damage to plant)
  pest or weed control at 250 g/ha: 70%
[12]; 15.625 g ai/ha, evaluated after 13 days (100=total damage to plant; 0=no damage to plant), read-out: Pigweed, Redroot damage rating
  pest or weed control at 15.625 g/ha: 40%
[12]; 62.5 g ai/ha, evaluated after 13 days, read-out: Pigweed, Redroot damage rating (100=total damage to plant; 0=no damage to plant)
  pest or weed control at 62.5 g/ha: 30%
[12]; 250 g ai/ha, evaluated after 13 days, read-out: damage to plant, Pigweed, Redroot (100=total damage to plant; 0=no damage to plant)
  pest or weed control at 250 g/ha: 60%
